Measured values: ChEMBL document CHEMBL1154109, “In vitro biological activity and structural analysis of 2,4-diamino-5-(2'-arylpropargyl)pyrimidine inhibitors of Candida albicans” (Bioorg Med Chem, 2009)
In brackets after ≈: the same amount, converted by molar mass. Activity calls are given as the source filed them. The rule behind the calls is not given here.

Columns and labels:
Candida albicans [1] = test system: Candida albicans
Dihydrofolate reductase [2] = biological target: T1, Dihydrofolate reductase (Candida albicans, UniProt P22906)
T1 sequence (P22906 whole entry): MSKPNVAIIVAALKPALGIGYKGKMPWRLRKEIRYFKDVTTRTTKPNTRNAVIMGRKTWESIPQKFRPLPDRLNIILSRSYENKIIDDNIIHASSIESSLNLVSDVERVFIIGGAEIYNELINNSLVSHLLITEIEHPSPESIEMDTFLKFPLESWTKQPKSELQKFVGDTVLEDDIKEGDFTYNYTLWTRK
Description: Inhibition of Candida albicans DHFR expressed in Escherichia coli BL21 (DE3) assessed as rate of NADPH consumption using dihydrofolate as substrate

[3] = Cytotoxicity against human MCF10A cells after 4 hrs by alamar blue assay; settings: MCF-10A
Candida albicans [4] = assay: Antifungal activity against Candida albicans by alamar blue assay
Dihydrofolate reductase [5] = biological target: T2, Dihydrofolate reductase (Homo sapiens, UniProt P00374)
T2 sequence (P00374 whole entry): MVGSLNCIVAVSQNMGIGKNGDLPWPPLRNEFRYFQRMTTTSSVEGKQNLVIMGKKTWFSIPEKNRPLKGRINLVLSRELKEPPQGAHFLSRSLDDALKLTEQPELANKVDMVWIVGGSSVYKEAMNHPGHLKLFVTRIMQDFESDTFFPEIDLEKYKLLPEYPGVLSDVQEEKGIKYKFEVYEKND
Description: Inhibition of human DHFR assessed as rate of NADPH consumption using dihydrofolate as substrate

COc1cc(CC#Cc2cnc(N)nc2N)cc(OC)c1OC
MIC (Candida albicans [1]): inactive | IC50 (Dihydrofolate reductase [2]): 0.82 µM

COc1cc(CC#Cc2c(C)nc(N)nc2N)cc(OC)c1OC
MIC (Candida albicans [1]): inactive | IC50 (Dihydrofolate reductase [2]): 0.18 µM

COc1cc(-c2ccccc2)cc([C@@H](C)C#Cc2c(C)nc(N)nc2N)c1
IC50 (Dihydrofolate reductase [2]): 0.033 µM

COc1cc(-c2ccccc2)cc([C@H](C)C#Cc2c(C)nc(N)nc2N)c1
IC50 (Dihydrofolate reductase [2]): 0.037 µM

CCc1nc(N)nc(N)c1C#CCc1cc(OC)c(OC)c(OC)c1
IC50 (Dihydrofolate reductase [2]): 0.018 µM

COc1ccc(OC)c(CC#Cc2c(C)nc(N)nc2N)c1
IC50 (Dihydrofolate reductase [2]): 0.41 µM

CCc1nc(N)nc(N)c1C#CCc1cc(OC)ccc1OC
IC50 [3]: 63 µM | IC50 (Dihydrofolate reductase [2]): 0.1 µM

CCCc1nc(N)nc(N)c1C#CCc1cc(OC)ccc1OC
IC50 (Dihydrofolate reductase [2]): 0.045 µM

COc1ccc(OC)c(CC#Cc2cnc(N)nc2N)c1
IC50 (Dihydrofolate reductase [2]): 1.4 µM

COc1cc(CC#Cc2c(C)nc(N)nc2N)cc(-c2c(C)cccc2C)c1
IC50 (Dihydrofolate reductase [2]): 0.055 µM

COc1cc(C(C)C#Cc2cnc(N)nc2N)cc(OC)c1OC (racemic)
MIC (Candida albicans [1]): inactive | IC50 (Dihydrofolate reductase [2]): 0.18 µM

COc1cc(C(C#Cc2cnc(N)nc2N)OC)cc(OC)c1OC (racemic)
MIC (Candida albicans [1]): inactive | IC50 (Dihydrofolate reductase [2]): 2.5 µM

COc1cc(C(C#Cc2c(C)nc(N)nc2N)OC)cc(OC)c1OC (racemic)
MIC (Candida albicans [1]): inactive | IC50 (Dihydrofolate reductase [2]): 0.32 µM

COc1cc(C(O)C#Cc2c(C)nc(N)nc2N)cc(OC)c1OC (racemic)
MIC (Candida albicans [1]): inactive | IC50 [3]: 1000 µM | IC50 (Dihydrofolate reductase [2]): 0.98 µM

COc1cc(C(C)C#Cc2c(C)nc(N)nc2N)cc(OC)c1OC (racemic)
IC50 (Dihydrofolate reductase [2]): 0.11 µM

COc1cc(C(O)C#Cc2cnc(N)nc2N)cc(OC)c1OC (racemic)
MIC (Candida albicans [1]): inactive | IC50 (Dihydrofolate reductase [2]): 11.9 µM

COc1cc(-c2c(C)cccc2C)cc(C(C)C#Cc2c(C)nc(N)nc2N)c1 (racemic)
IC50 (Dihydrofolate reductase [2]): 0.045 µM

COc1cc(-c2c(C(C)C)cccc2C(C)C)cc(C(C)C#Cc2c(C)nc(N)nc2N)c1 (racemic)
MIC (Candida albicans [1]): inactive | IC50 (Dihydrofolate reductase [2]): 0.038 µM

COc1cc(C(C)C#Cc2c(C)nc(N)nc2N)ccc1-c1ccccc1 (racemic)
IC50 [3]: 80 µM | IC50 (Dihydrofolate reductase [2]): 0.055 µM

COc1cc(C(C)C#Cc2c(C)nc(N)nc2N)ccc1-c1c(C)cccc1C (racemic)
MIC (Candida albicans [1]): inactive | IC50 (Dihydrofolate reductase [2]): 0.032 µM

COc1cc(C(C)C#Cc2c(C)nc(N)nc2N)ccc1-c1c(C(C)C)cccc1C(C)C (racemic)
MIC (Candida albicans [1]): inactive | IC50 (Dihydrofolate reductase [2]): 0.041 µM

COc1cc(-c2ccccc2C)cc(C(C)C#Cc2c(C)nc(N)nc2N)c1 (racemic)
IC50 (Dihydrofolate reductase [2]): 0.045 µM

COc1cc(-c2ccccc2)cc(C(C)C#Cc2c(C)nc(N)nc2N)c1 (racemic)
MIC (Candida albicans [4]): 90 µg/mL (≈ 251 µM)

COc1ccc(-c2cc(OC)cc(C(C)C#Cc3c(C)nc(N)nc3N)c2)cc1 (racemic)
IC50 (Dihydrofolate reductase [2]): 0.03 µM

COc1ccc(OC)c(C(O)C#Cc2c(C)nc(N)nc2N)c1 (racemic)
IC50 (Dihydrofolate reductase [2]): 0.73 µM

COc1ccc(OC)c(C(C)C#Cc2c(C)nc(N)nc2N)c1 (racemic)
IC50 (Dihydrofolate reductase [5]): 0.4 µM | IC50 (Dihydrofolate reductase [2]): 0.048 µM

CCC(C#Cc1c(C)nc(N)nc1N)c1cc(OC)c(OC)c(OC)c1 (racemic)
IC50 (Dihydrofolate reductase [5]): 0.2 µM | IC50 (Dihydrofolate reductase [2]): 0.045 µM

COc1cc(-c2ccccc2)cc(C(O)C#Cc2c(C)nc(N)nc2N)c1 (racemic)
MIC (Candida albicans [1]): inactive | IC50 (Dihydrofolate reductase [2]): 0.091 µM

COc1cc(-c2cc(C)cc(C)c2)cc(C(C)C#Cc2c(C)nc(N)nc2N)c1 (racemic)
IC50 (Dihydrofolate reductase [2]): 0.017 µM

CCc1nc(N)nc(N)c1C#CC(C)c1cc(OC)c(OC)c(OC)c1 (racemic)
IC50 (Dihydrofolate reductase [2]): 0.02 µM

COc1cc(-c2ccc(C(C)(C)C)cc2)cc(C(C)C#Cc2c(C)nc(N)nc2N)c1 (racemic)
IC50 [3]: 50 µM | IC50 (Dihydrofolate reductase [2]): 0.034 µM

COc1cc(C(C#Cc2c(C)nc(N)nc2N)C(C)C)cc(OC)c1OC (racemic)
IC50 (Dihydrofolate reductase [2]): 0.033 µM

COc1ccc(OC)c(C(C#Cc2c(C)nc(N)nc2N)OC)c1 (racemic)
MIC (Candida albicans [1]): inactive | IC50 (Dihydrofolate reductase [5]): 0.06 µM | IC50 (Dihydrofolate reductase [2]): 0.55 µM

COc1cc(-c2ccc(C)cc2)cc(C(C)C#Cc2c(C)nc(N)nc2N)c1 (racemic)
IC50 (Dihydrofolate reductase [2]): 0.022 µM
